According to patent publication US6815465B1, “Heterocyclic compounds inhibiting angiogenesis” (IVAX International GmbH, priority 1999, dated 2004):

Key:
[1] = system: ECV 304 endothelial cells; assay: Examination of endothelial capillary formation; type: cell-based; details: for selectivity index: inhibits the capillary formation better than the cell proliferation, in relation to the borrelidin: ECV 304, from ratios of concentrations inhibiting cell proliferation in 50% and capillary formation, relative to borrelidin
Description: Basal membrane protein gel prepared from murine EHS tumor, which induces capillary formation, was put onto ECV 304 endothelial cells. The treatment with the borrelidin and the novel borrelidin derivatives of general formula (I) according to the invention was carried out in the same way as in case of the examination of cell proliferation. The extent by which the cells take part in the capillary formation was examined microscopically and by the aid of a morphometrical program, and the thus-obtained data were expressed in percent of the untreated control.
Namely, it has been stated that, relating to borrelidin, the cell-proliferation-inhibiting effect of the novel derivatives of general formula (I) definitely decreases whereas the capillary-formation-inhibiting effect changes only in a small degree or not at all. The relative degree of selectivity was determined for each compound by […] the ratios of the active agent concentrations that inhibit the cell proliferation in 50% and which inhibit the capillary formation.

[2] = system: mouse colon adenocarcinoma cells transplanted into the spleen; assay: Colon 38 spleen-liver metastasis model; type: in vivo; details: subtoxic administration
Text: 2. In a colon 38 spleen-liver model [Dong, Z. et al., J. Natl. Cancer Inst.

[3] = system: Lewis lung adenocarcinoma; assay: Lewis lung adenocarcinoma metastasis model; type: in vivo; details: for inhibition of the increase of micrometastases: one fifth of the toxic dose
[4] = in vivo; cited from earlier work
[5] = system: cell lines WiDr of human colon cancer; details: cited from earlier work
[6] = system: PC-3 of human prostate cancer; details: cited from earlier work
[7] = system: cells forming capillary tubules; details: cited from earlier work

## C[C@@H]1C[C@H](C)C[C@H](C)[C@@H](O)CC(=O)O[C@H]([C@@H]2CCC[C@H]2C(=O)OCCN2CCOCC2)C/C=C/C=C(/C#N)[C@H](O)[C@@H](C)C1 [Example 1, Borrelidin-2-morpholinoethyl ester]
[1]
  selectivity index: inhibits the capillary formation better than the cell proliferation, in relation to the borrelidin: 60 times

## CC1CC(C)CC(C)C(O)C(C#N)=CC=CCC(C2CCCC2C(=O)OCCc2ccccn2)OC(=O)CC(O)C(C)C1 (stereo not drawn) [Example 2, Borrelidin-2-(2-pyridyl)-ethyl ester]
[1]
  selectivity index: inhibits the capillary formation better than the cell proliferation, in relation to the borrelidin: 7.5 times

## CC1CC(C)CC(C)C(O)C(C#N)=CC=CCC(C2CCCC2C(=O)NCCN2CCOCC2)OC(=O)CC(O)C(C)C1 (stereo not drawn) [Example 4, Borrelidin 2-morpholinoethyl amide]
[1]
  selectivity index: inhibits the capillary formation better than the cell proliferation, in relation to the borrelidin: 6 times

## CC1CC(C)CC(C)C(O)CC(=O)OC(C2CCCC2C(=O)NCc2cccnc2)C(C#N)=CC=CCC(O)C(C)C1 (stereo not drawn) [Example 15, Borrelidin-3-picolylamide]
[2]
  metastasis-forming ability of mouse colon adenocarcinoma cells transplanted into the spleen: considerably decreased
[3]; intraperitoneal administration
  inhibition of the increase of micrometastases: inhibited very considerably
[3]; per os administration
  inhibition of the increase of micrometastases: inhibited very considerably

## C[C@@H]1C[C@H](C)C[C@H](C)[C@@H](O)CC(=O)O[C@H]([C@@H]2CCC[C@H]2C(=O)O)C/C=C/C=C(/C#N)[C@H](O)[C@@H](C)C1 [borrelidin, 2′-(7-cyano-8,16-dihydroxy-9,11,13,15-tetramethyl-18-oxo-oxacyclooctadeca-4,6-dien-2-yl)-cyclopentane-1′-carboxylic acid]
[4]
  LD50 value: medium
[1]; endothelial cells
  difference in sensitivity of proliferation and capillary formation by the endothelial cells, in favour of capillary formation: about a five fold difference
[3]; Lewis lung adenocarcinoma model
  inhibition of the propagation of metastatic nodules formed after removing the primary tumour in lung: inhibited in a very small degree
[5]
  effectiveness against cell line: effective
[6]
  effectiveness against cell line: effective
[7]
  angiogenesis-inhibiting effect: induces the apoptosis of the cells forming capillary tubules
